The record followed here is patent US12673987B2, “Method to identify compounds useful to treat dysregulated lipogenesis, diabetes, and related disorders” (President and Fellows of Harvard College, priority 2017, dated 2026).

Experiment [1] relates to HepG2 cells. As to the kind of experiment: De novo lipogenesis (DNL) in HepG2 cells treated with conditioned media from lipolysis-stimulated adipocytes (3H2O incorporation). In kind it is cell-based, human. The method, then:
Murine 3T3L1 adipocytes and human HepG2 cells were obtained from the ATCC. 3T3L1 adipocytes were maintained in Dulbecco Modified Eagle Medium (DMEM) containing 25 mM glucose (Gibco) supplemented with 10% cosmic calf serum (CCS), and adipocyte differentiation was induced as previously described (Ntambi et al., (1988) J. Biol. Chem. 263, 17291-17300). Briefly, preadipocytes were grown in 10 cm dishes until they are fully confluent. At confluent state, 10% bovine calf serum (BCS) containing DMEM medium was replaced with 10% fetal bovine serum (FBS) containing DMEM for two days. Differentiation was induced by FBS medium containing 5 μg/ml Insulin (Sigma, 15500), 0.5 mM IBMX (Sigma, 15879), 1 μM Dexamethasone (Sigma, D4902), and 1 μM Rosiglitazone (Cayman Chemical, 71740). After two days, medium was replaced with FBS medium containing 5 μg/ml Insulin every other day until the cells were completely differentiated at day 10. For siRNA experiment, differentiated 3T3-L1 adipocytes were transfected using Amaxa Nucleofector Kit L (Lonza, VCA-1005) according to the manufacturer's protocol. Briefly, differentiated adipocytes were trypsinized and centrifuged at 100 g for 10 minutes. 3×10^6 cells per 6-well were transfected with 120 pmol/sample Control siRNA (Dharmacon, D-001810-10) or mouse aP2 siRNA (Dharmacon, L-042923-01) using Nucleofector Program A-33. Transfected cells were seeded in Collagen I coated 6-well plates (Corning, 356400). Conditioned media for stimulation of HepG2 cells were prepared in DMDM 3.3 mM glucose supplemented with 0.5% FBS before (basal) and after (lipolysis stimulated) the lipolysis stimulation with 1 mM IBMX. For explant studies, adipose tissue was removed from 8-12 weeks-old littermate mice, minced and washed 5× with DMEM high glucose supplemented with 10% CCS. Twenty pieces of adipose tissue were placed into 6-well plates in 2 ml DMEM high glucose with 10% CCS and incubated for 1 hr. Then conditioned media for stimulation of HepG2 cells were prepared in […] 3.3 mM glucose supplemented with 0.5% FBS before (basal) and after (lipolysis stimulated) the lipolysis stimulation with 1 mM 3-isobutyl-1-methylxanthine (IBMX). For antibody neutralization, 10 nM (for 3T3L1 cells) or 20 nM (for adipose tissue explant) of IgG, CA33, or CA15 antibody was added to DMDM 3.3 mM glucose supplemented with 0.5% FBS was used for the preparation of “basal” and “lipolysis stimulated” conditioned media.
(§1) For maintenance, HepG2 cells were cultured in DMEM containing 5.5 mM glucose (Gibco) supplemented with 10% FBS. For DNL and p-AMPK analysis, HepG2 cells were cultured in DMDM 3.3 mM glucose supplemented with 0.5% FBS, seeded 2×10^5 cells in 12 well plate or 4×10^5 cells in 6 well plate for DNL analysis and p-AMPK analysis, respectively.
For DNL analysis, after overnight culture, the cells were stimulated with conditioned media or 2-AG/aP2 complex and […] of ^3H2O were added 30 min after the stimulation (Gnoni et al., (1985) Biochem. & Biophysical Res. Comm. 128, 525-530; Lowenstein et al., Meth. Enzym. 35, 279-287). […] The cell lysate was analyzed for protein concentration and total lipid was extracted by Dole's extraction method (Dole et al., (1960) J. Biol. Chem. 235, 2595-2599). ^3H incorporation into de novo synthesized lipids were analyzed by scintillation count and calculated as count per μg protein. […] AMPK phosphorylation was determined by western blot (see below).

Experiment [2] deals with T1, aP2 (Mus musculus, UniProt P04117).
T1 sequence (P04117 1-132): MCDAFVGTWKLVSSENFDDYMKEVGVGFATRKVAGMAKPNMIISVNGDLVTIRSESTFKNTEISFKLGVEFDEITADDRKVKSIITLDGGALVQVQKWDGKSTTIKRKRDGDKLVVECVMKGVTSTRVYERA
As to the kind of experiment: Microscale thermophoresis assay. In kind it is binding. Set-up: His tag (cleaved yes); made in house. To be noted: fluorescence labeled purified aP2 protein. The method, then: It has been reported that both 2-AG and AEA have similar affinity for the CB1 receptor (Stella et al., (1997) Nature 388, 773-778; Felder et al., (1993) PNAS 90, 7656-7660), and only the level of 2-AG in serum is regulated in obesity (Bluher et al., (2006) Diabetes 55, 3053-3060). The potential interaction between 2-AG and aP2 was tested. […] Finally, to resolve the mechanism and structural determinants of this interaction, aP2 and 2-AG was co-crystallized, confirming the ability of these two molecules to bind. In Ca superposition, the root mean square deviation (RMSD) between mouse 2-AG/FABP4 complex and apo mouse FABP4 structure was about 0.548 A (see FIG. 3G). […] Due to steric hindrance of the acyl chain of 2-AG, the Phe57 side chain was modelled as open position in the complex structure. The polar head group of 2-AG was stabilized by hydrogen bond interactions with R127, R107, Y129 and S54 of FABP4 (see FIG. 3H).
In general terms: Microscale thermophoresis detects binding through changes in fluorescence in a small temperature gradient.

Experiment [3] has as its system HepG2 cells. In words: DNL in HepG2 cells stimulated with 2-AG/aP2 complex (3H2O incorporation). Conditions: for stimulation of DNL in HepG2 cells: final concentration in culture media 10 nM. In kind it is cell-based, human. The method, then: as §1
For DNL analysis, after overnight culture, the cells were stimulated with conditioned media or 2-AG/aP2 complex and […] of ^3H2O were added 30 min after the stimulation (Gnoni et al., (1985) Biochem. & Biophysical Res. Comm. 128, 525-530; Lowenstein et al., Meth. Enzym. 35, 279-287). After 2 hours of incubation with ^3H2O, cells were washed with PBS and lysed with 0.1N NaOH. The cell lysate was analyzed for protein concentration and total lipid was extracted by Dole's extraction method (Dole et al., (1960) J. Biol. Chem. 235, 2595-2599). ^3H incorporation into de novo synthesized lipids were analyzed by scintillation count and calculated as count per μg protein. For p-AMPK analysis, after overnight culture, cells were stimulated with conditioned media or 2-AG/aP2 complex for 30 min. The cells were washed twice with ice cold PBS and lysed with ice cold RIPA buffer (Cell Signaling) supplemented with 1 mM PMSF. AMPK phosphorylation was determined by western blot (see below).
(§2) 10 or 20 μM delipidated mouse recombinant aP2 protein with or without 10 μM 2-AG were diluted in 50 mM potassium phosphate buffer (pH 7.4) and incubated at 37C for overnight. The ratio of aP2 binding to 2-AG was determined by 8-Anilinonaphthalene-1-sulfonic acid (ANS) assay. For antibody neutralization, IgG, CA33, or CA15 antibody at final concentration of 20 μM was added to 50 mM potassium phosphate buffer (pH 7.4) only or to delipidated mouse recombinant aP2 protein (final 10 μM) with 2-AG (final 10 μM) solution in 50 mM potassium phosphate buffer (pH 7.4) and incubated at 37° C. overnight. Final concentration in culture media for aP2, 2-AG, and antibodies were 10, 10, and 20 nM, respectively.

In another experiment the test system is AMPK(Thr172). As to the kind of experiment: AMPK phosphorylation in HepG2 cells by western blot. In kind it is cell-based, human. Conditions: 5 μM alone. On the procedure:
as §1
For DNL analysis, after overnight culture, the cells were stimulated with conditioned media or 2-AG/aP2 complex and […] of ^3H2O were added 30 min after the stimulation (Gnoni et al., (1985) Biochem. & Biophysical Res. Comm. 128, 525-530; Lowenstein et al., Meth. Enzym. 35, 279-287). After 2 hours of incubation with ^3H2O, cells were washed with PBS and lysed with 0.1N NaOH. The cell lysate was analyzed for protein concentration and total lipid was extracted by Dole's extraction method (Dole et al., (1960) J. Biol. Chem. 235, 2595-2599). ^3H incorporation into de novo synthesized lipids were analyzed by scintillation count and calculated as count per μg protein. […] AMPK phosphorylation was determined by western blot (see below).
The antibodies used were rabbit anti-pAMPK (Cell Signaling), anti-actin HRP conjugated (Abcam), in-house anti-aP2 (H3) HRP conjugated antibodies. For quantification, Western blot images were captured and band intensities were analyzed using ImageJ software.
A general note: In western blotting, separated proteins are transferred to a membrane and probed.

Experiment [4] addresses T1, aP2. In words: 8-Anilinonaphthalene-1-sulfonic acid (ANS) binding assay. Further details: His tag (cleaved yes); made in house; host or cells: Escherichia coli BL21DE3 (Pet28a plasmid). The method, then: as §2
aP2 or aP2/lipid solution (final aP2 concentration 1 μM) and ANS (final 5 μM) was diluted in 50 mM potassium phosphate buffer (pH 7.4) and fluorescence Ex/Em 375/475 was measured.

Experiment [5] concerns 3T3L1 adipocytes. In words: FFA release from 3T3L1 adipocytes. In kind it is cell-based, murine. Conditions: adipocytes pretreated with 10 μM, starting 48 hours before collection of conditioned media. The method, then:
(§3) Murine 3T3L1 adipocytes and human HepG2 cells were obtained from the ATCC. 3T3L1 adipocytes were maintained in Dulbecco Modified Eagle Medium (DMEM) containing 25 mM glucose (Gibco) supplemented with 10% cosmic calf serum (CCS), and adipocyte differentiation was induced as previously described (Ntambi et al., (1988) J. Biol. Chem. 263, 17291-17300). Briefly, preadipocytes were grown in 10 cm dishes until they are fully confluent. At confluent state, 10% bovine calf serum (BCS) containing DMEM medium was replaced with 10% fetal bovine serum (FBS) containing DMEM for two days. Differentiation was induced by FBS medium containing 5 μg/ml Insulin (Sigma, 15500), 0.5 mM IBMX (Sigma, 15879), 1 μM Dexamethasone (Sigma, D4902), and 1 μM Rosiglitazone (Cayman Chemical, 71740). After two days, medium was replaced with FBS medium containing 5 μg/ml Insulin every other day until the cells were completely differentiated at day 10. For siRNA experiment, differentiated 3T3-L1 adipocytes were transfected using Amaxa Nucleofector Kit L (Lonza, VCA-1005) according to the manufacturer's protocol. […]
Triglyceride (TG) levels were analyzed using triglyceride assay kit (Randox) and Cholesterol levels were analyzed using by Infinity cholesterol kid (Thermo Scientific). FFA levels in culture media were measured using a NEFA-HR2 kit (Wako) following the manufacturer's instructions.

The subject of experiment [6] is 3T3L1 adipocytes. As to the kind of experiment: aP2 secretion from 3T3L1 adipocytes into conditioned media. Type of experiment: cell-based, murine. To be noted: adipocytes pretreated with 10 μM, starting 48 hours before collection of conditioned media. The method, then: as §3, with “protocol. Briefly, differentiated adipocytes were trypsinized and centrifuged at 100 g for 10 minutes. 3×10^6 cells per 6-well were transfected with 120 pmol/sample Control siRNA (Dharmacon, D-001810-10) or mouse aP2 siRNA (Dharmacon, L-042923-01) using Nucleofector Program A-33.” for “protocol.”

For `Cc1c(C(=O)NN2CCCCC2)nn(-c2ccc(Cl)cc2Cl)c1-c1ccc(Cl)cc1` [Rimonabant], the “induction of DNL by conditioned media from lipolysis-stimulated 3T3L1 adipocytes” value in the experiment with HepG2 cells [1] (HepG2 cells treated with 1 μM) is “completely inhibited induction of DNL”.
As to `CCCCCCCC/C=C\CCCCCCCC(=O)O` [oleate], the “Kd of direct binding to aP2” value at aP2 [2] was “an affinity similar to that observed for oleate”.
`CCCCC/C=C\C/C=C\C/C=C\C/C=C\CCCC(=O)OC(CO)CO` [2-AG, 2-Arachidonoylglycerol]: the “stimulation of DNL in HepG2 cells” value in the experiment on HepG2 cells [3] is “nor 2-AG alone stimulated DNL”. For the same molecule, the “dephosphorylation of AMPK(Thr172) in HepG2 cells” value in the experiment on AMPK(Thr172) is reported as “same level”. Besides, the “binding of 2-AG to aP2 by ANS assay” value on aP2 [4] (after overnight incubation of delipidated recombinant aP2 with 2-AG) was “confirmed binding”. Further, at aP2 [4] (compared with mall (Fabp5)), the “binding affinity of aP2 to the lipid, substrate competition with ANS” value is on record as “same affinity as does mall”.
With `CCc1c(-c2ccccc2)c(-c2ccccc2)nn1-c1ccccc1-c1cccc(OCC(=O)O)c1` [BMS-309403], the “ability of conditioned media from lipolysis-stimulated 3T3L1 adipocytes to induce DNL in HepG2 cells” value with HepG2 cells [1] (3T3L1 adipocytes pretreated with 10 μM, starting 48 hours before collection) is reported as “completely inhibited”. Also, in the experiment on HepG2 cells [1] (Fabp-deficient adipocytes pre-incubated with 10 μM), the “effect on DNL in HepG2 cells treated with conditioned media from Fabp-deficient adipocytes” value is “no additional or Fabp-independent effect on DNL”. In addition, the FFA secretion result in the experiment on 3T3L1 adipocytes [5] is “did not alter”. In addition, the aP2 secretion entry in the experiment with 3T3L1 adipocytes [6] is given as “did not alter”. Moreover, in the experiment on HepG2 cells [3] (added during 2-AG/aP2 complex formation), the “effect of 2-AG/aP2 complex on DNL in HepG2 cells” value is given as “eliminated the effect of 2-AG/aP2 complex on DNL”.

B1: CA33: therapeutically active aP2 monoclonal antibody; the rabbit 909 heavy and light chain comprise CA33 (antibody, V domains shown)
VH: QSVEESGGRLVTPGTPLTLTCTVSGFSLSTYYMSWVRQAPGKGLEWIGIIYPSGSTYCASWAKGRFTISKASTTVDLKITSPTTEDTATYFCARPDNDGTSGYLSGFGLWGQGTLVTVSS
VL: DVVMTQTPASVSEPVGGTVTIKCQASEDISRYLVWYQQKPGQPPKRLIYKASTLASGVPSRFKGSGSGTDFTLTISDLECDDAATYYCQCTYGTYAGSFFYSFGGGTEVVVE
modifications: Rabbit Ab 909 VH region; Rabbit Ab 909 VL-region
In the case of B1, the “induction of DNL by conditioned media from lipolysis stimulated adipocytes in HepG2 cells” value in the experiment with HepG2 cells [1] (antibody (10 nM for 3T3L1 cells) added to conditioned media, IBMX lipolysis stimulation) is “completely prevented the induction of DNL”. In addition, in the experiment on HepG2 cells [3] (complex formed in the presence of antibody (20 μM, final 20 nM in culture media)), the “ability of 2-AG/aP2 complex to regulate DNL in HepG2 cells” value is “lost its ability to regulate DNL”.

B2: aP2: delipidated mouse recombinant aP2 protein (adipocyte lipid binding protein) (protein)
chain: CDAFVGTWKLVSSENFDDYMKEVGVGFATRKVAGMAKPNMIISVNGDLVTIRSESTFKNTEISFKLGVEFDEITADDRKVKSIITLDGGALVQVQKWDGKSTTIKRKRDGDKLVVECVMKGVTSTRVYERA
Take B2: the “rescue of DNL in HepG2 cells” value with HepG2 cells [1] (added to conditioned media from 3T3L1 adipocytes with siRNA-mediated aP2 suppression) was “not sufficient to rescue DNL”. Moreover, the “stimulation of DNL in HepG2 cells” value in the experiment on HepG2 cells [3] is given as “neither aP2 nor 2-AG alone stimulated DNL”.
